Patent US20240400572A1, “COMPOUNDS AND METHODS FOR TREATING CANCERS THAT ARE MGMT DEFICIENT REGARDLESS OF MMR STATUS” (Yale University, priority 2021, published 2024)
Structures can show the parent of a compound that is named as a salt.

Columns and labels:
Assay in all cases: Anticancer activity towards LN229 human brain glioblastoma cells (nuclei count after 120 hours)
Type in all cases: cell-based
Conditions in all cases: LN-229, LN229 quad cells, 200 μM to 0.1 uM
[1] = test system: LN229 MGMT− MMR− cells
Description: (§1) Exemplary compounds were evaluated for activity against LN229 human brain glioblastoma cells. Experimental procedures and results are provided elsewhere herein.
(§2) LN229 quad cells were maintained in Dulbecco's Modified Eagle Medium (DMEM) supplemented with 10% fetal bovine serum. Cells were plated into sterile black with glass bottom 384-well plates (Cellvis) at a concentration of 1,000 cells/well (20 μL total volume) using a MultiDrop (Thermo Fisher). Then, assay plates were centrifuged at 300 rpm for 2 seconds and incubated overnight in a 37° C. 5% CO2 incubator. Compounds were prepared as 100 mM stocks in DMSO and stored protected from light at −20′C until use. Prior to compound addition, the stock solutions of compound were diluted two-fold serially in DMSO from 100 mM down to 0.05 mM in a 384-well Source plate. Vehicle control wells containing DMSO and positive control wells containing 10 mM bortezomib were also added to the Source plate. An aliquot in the amount of 40 nL of compound stock solution or DMSO vehicle was transferred from the source plate to the cell assay plate using an Echo Acoustic dispense (Beckman). Three replicate dilution curves of each compound were run on each assay plate. An aliquot in the amount of 120 nL of a 10 mM bortezomib solution was transferred to the positive control wells resulting in a final concentration of 60 μM. The final concentration of compounds ranged from 200 μM to 0.1 uM (12-point, 2-fold dilution dose response curve), and the final DMSO concentration was 0.2%.
(§3) Assay plates were centrifuged at 500 rpm for 2 seconds and incubated for 120 hours at 37° C. in a humidified 5% CO2 incubator. Following incubation, cells were fixed with 4% paraformaldehyde and stained with DAPI for nuclei visualization. The images were acquired on the InCell 2200 high content imager (GE, now […]), and quantified using InCell Analyzer image analysis software. Z prime factor, signal-to-background and coefficient of variation were calculated for each assays plate using mean and standard deviation values of the negative (vehicle) and positive (bortezomib) control wells to ensure assay robustness. Raw cell count data for test compounds was normalized to percent viability relative to the DMSO vehicle control. Data was plotted in GraphPad Prism using a variable slope 4-parameter fit.

[2] = test system: LN229 MGMT+ MMR+ cells
Description: as §1, §2, §3

[3] = test system: LN229 MGMT+ MMR− cells
Description: as §1, §2, §3

[4] = test system: LN229 MGMT− MMR+ cells
Description: as §1, §2, §3

Row | IC50 [1] [µM] | IC50 [2] [µM] | IC50 [3] [µM] | IC50 [4] [µM] | Structure (SMILES)
1 | 10 to 20 | 20 to 50 | 20 to 50 | 20 to 50 | CCCN(CCC)C(=O)c1ncn2c(=O)n(CCF)nnc12 [Compound I-13, 3-(2-fluoroethyl)-4-oxo-N,N-dipropyl-3H,4H-imidazo[4,3-d][1,2,3,5]tetrazine-8-carboxamide]
2 | 20 to 50 | > 80 | > 80 | > 80 | CCCN(CC)C(=O)c1ncn2c(=O)n(CCF)nnc12 [Compound I-18, N-ethyl-3-(2-fluoroethyl)-4-oxo-N-propyl-3H,4H-imidazo[4,3-d][1,2,3,5]tetrazine-8-carboxamide]
3 | < 10 | < 10 | < 10 | < 10 | O=C(Nc1nccs1)c1ncn2c(=O)n(CCF)nnc12 [Compound I-7, 3-(2-fluoroethyl)-4-oxo-N-(1,3-thiazol-2-yl)-3H,4H-imidazo[4,3-d][1,2,3,5]tetrazine-8-carboxamide]
4 | 10 to 20 | > 80 | > 80 | 20 to 50 | CCN(C)C(=O)c1ncn2c(=O)n(CCF)nnc12 [Compound I-14, N-ethyl-3-(2-fluoroethyl)-N-methyl-4-oxo-3H,4H-imidazo[4,3-d][1,2,3,5]tetrazine-8-carboxamide]
5 | < 10 | > 80 | > 80 | 10 to 20 | O=C(Nc1ccccn1)c1ncn2c(=O)n(CCF)nnc12 [Compound I-8, 3-(2-fluoroethyl)-4-oxo-N-(pyridin-2-yl)-3H,4H-imidazo[4,3-d][1,2,3,5]tetrazine-8-carboxamide]
6 | < 10 | > 80 | > 80 | 10 to 20 | O=C(NC1CCC1)c1ncn2c(=O)n(CCF)nnc12 [Compound I-5, N-cyclobutyl-3-(2-fluoroethyl)-4-oxo-3H,4H-imidazo[4,3-d][1,2,3,5]tetrazine-8-carboxamide]
7 | 10 to 20 | > 80 | > 80 | 20 to 50 | CN(C)C(=O)c1ncn2c(=O)n(CCF)nnc12 [Compound I-6, 3-(2-fluoroethyl)-N,N-dimethyl-4-oxo-3H,4H-imidazo[4,3-d][1,2,3,5]tetrazine-8-carboxamide]
8 | < 10 | > 80 | > 80 | 10 to 20 | O=C(c1ncn2c(=O)n(CCF)nnc12)N1CCC1 [Compound I-9, 8-(azetidine-1-carbonyl)-3-(2-fluoroethyl)-3H,4H-imidazo[4,3-d][1,2,3,5]tetrazin-4-one]
9 | < 10 | > 80 | > 80 | 20 to 50 | O=C(c1ncn2c(=O)n(CCF)nnc12)N1CCCC1 [Compound I-10, 3-(2-fluoroethyl)-8-(pyrrolidine-1-carbonyl)-3H,4H-imidazo[4,3-d][1,2,3,5]tetrazin-4-one]
10 | < 10 | > 80 | > 80 | 10 to 20 | O=C(NC1CC1)c1ncn2c(=O)n(CCF)nnc12 [Compound I-4, N-cyclopropyl-3-(2-fluoroethyl)-4-oxo-3H,4H-imidazo[4,3-d][1,2,3,5]tetrazine-8-carboxamide]
11 | < 10 | > 80 | > 80 | 10 to 20 | CCCNC(=O)c1ncn2c(=O)n(CCF)nnc12 [Compound I-16, 3-(2-fluoroethyl)-4-oxo-N-propyl-3H,4H-imidazo[4,3-d][1,2,3,5]tetrazine-8-carboxamide]
12 | < 10 | > 80 | > 80 | 50 to 80 | [2H]C([2H])([2H])N(Cc1ccccc1)C(=O)c1ncn2c(=O)n(CCF)nnc12 [Compound I-20, N-benzyl-3-(2-fluoroethyl)-N-(2H3)methyl-4-oxo-3H,4H-imidazo[4,3-][1,2,3,5]tetrazine-8-carboxamide]
13 | 10 to 20 | > 80 | > 80 | 50 to 80 | CCN(CC)C(=O)c1ncn2c(=O)n(CCF)nnc12 [Compound I-15, N,N-diethyl-3-(2-fluoroethyl)-4-oxo-3H,4H-imidazo[4,3-d][1,2,3,5]tetrazine-8-carboxamide]
14 | < 10 | > 80 | > 80 | 50 to 80 | [2H]C([2H])([2H])NC(=O)c1ncn2c(=O)n(CCF)nnc12 [Compound I-19, 3-(2-fluoroethyl)-N-(D3)methyl-4-oxo-3H,4H-imidazo[4,3-d][1,2,3,5]tetrazine-8-carboxamide]
15 | < 10 | > 80 | > 80 | < 10 | O=C(NCC(F)(F)F)c1ncn2c(=O)n(CCF)nnc12 [Compound I-3, 3-(2-fluoroethyl)-4-oxo-N-(2,2,2-trifluoroethyl)-3H,4H-imidazo[4,3-d][1,2,3,5]tetrazine-carboxamide]
16 | < 10 | > 80 | > 80 | 10 to 20 | CCNC(=O)c1ncn2c(=O)n(CCF)nnc12 [Compound I-2, N-ethyl-3-(2-fluoroethyl)-4-oxo-3H,4H-imidazo[4,3-d][1,2,3,5]tetrazine-8-carboxamide]
17 | < 10 | > 80 | > 80 | < 10 | CN(C)CCNC(=O)c1ncn2c(=O)n(CCF)nnc12 [Compound I-12, N-[2-(dimethylamino)ethyl]-3-(2-fluoroethyl)-4-oxo-3H,4H-imidazo[4,3-d][1,2,3,5]tetrazine-8-carboxamide hydrochloride]

Row | Structure (SMILES) | IC50 [1] [µM] | IC50 [2] [µM] | IC50 [3] [µM] | IC50 [4] [µM]
18 | CCCN(C)C(=O)c1ncn2c(=O)n(CCF)nnc12 [Compound I-17, 3-(2-fluoroethyl)-N-methyl-4-oxo-N-propyl-3H,4H-imidazo[4,3-d][1,2,3,5]tetrazine-8-carboxamide] | 20 to 50 | > 80 | > 80 | > 80
